According to PMC12473906, “Comparing the Altis RepliGut Organoid System to MDCK Monolayers in Predicting the Oral Absorption of Lenalidomide” (Pharmaceutics, 2025):
Read-outs that look alike come from different tables or passages of the source.

Key:
[1] = Lenalidomide pharmacokinetic study in rats (IV and oral); type: in vivo, Sprague Dawley rats; settings: for AUC / Cmax / Tmax / half-life / bioavailability: plasma; for bioavailability: po
Experimental: All animal pharmacokinetic experiments were carried out by WuXi (Shanghai, China). Animals were kept on a light-dark cycle and allowed to eat and drink ad libitum. Animals receiving oral doses were fasted overnight. Animals’ condition and behavior were monitored throughout the experiment for signs of pain and distress. We utilized only male rats because similar pharmacokinetics in both genders was previously reported and no dosage adjustment is recommended based on gender, in order to reduce the number of animals required.
Male Sprague Dawley rats (230–280 g) (n = 3 per group) were administered lenalidomide (0.1, 1, 2, 10, and 50 mg/kg). The vehicles for oral and intravenous dosing were 0.6% methylcellulose A15 + 0.2% Tween 80 in water and 10% DMSO + 60% propylene glycol + 30% water, respectively. Serum samples were obtained prior to administration (predose) and at 0.033, 0.083, 0.25, 0.5, 1, 2, 4, and 6 h postdose from the IV group and at 0.083, 0.25, 0.5, 1, 2, 4, 8, and 24 h from the oral groups. Approximately 250 μL was collected at each time point via a catheter at the femoral artery from each rat into prechilled commercial K2-EDTA tubes on wet ice. Samples were centrifuged (3200× g for 10 min at 4 °C) within one hour of collection and frozen at −60 °C or lower before analysis. Approximately 5 mL of whole blood was collected from additional blank animals into prechilled commercial K2-EDTA tubes on wet ice and pooled to serve as blank plasma for bio-analysis. […] Animals were kept in metabolic cages to collect urine, feces, and bile at different periods after dosing. Wet ice was added during the whole collection process for urine and feces. Feces was homogenized in water, and the urine samples and feces homogenates were kept at −70 ± 10 °C until LC-MS/MS analysis. Pharmacokinetic parameters were calculated by non-compartmental methods, as described in Gibaldi and Perrier, using Phoenix® WinNonlin® version 8.5 (Certara L.P., Radnor, PA, USA).
The human equivalent dose (HED) was calculated based on the previously reported AUC after a typical dose in humans. The percentage of lenalidomide excreted in the feces/urine in 24 h was calculated by multiplying the fecal weight/urine volume by its measured lenalidomide concentration and dividing by the total amount of lenalidomide administered.(2) Percentage excreted in feces=100 · Feces weight ·Feces concentration /Dose volume ·Dose concentration (3) Percentage excreted in urine=100 · Urine volume ·Urine concentration /Dose volume ·Dose concentration
For the in vivo study, mass spectrometry detection of lenalidomide was accomplished using a SCIEX QTrap 6500+. Transition pairs used for quantification were as follows: lenalidomide (260.1 → 149.1 Da), labetalol (329.1 → 294.1 Da), indomethacin (357.9 → 139.0 Da), and loperamide (477.1 → 266.2 Da). Separation was achieved using a Waters Acquity UPLC system.
For urine samples, mobile phase A was 0.1% NH4OH and 2 mM NH4OAc in water/acetonitrile (v:v, 95:5), and mobile phase B was 0.1% NH4OH and 2 mM NH4OAc in acetonitrile/water (v:v, 95:5). Mobile phases were operated at the following gradient: initial, 1% B; 0–0.2 min, 1% B; 0.2–1, 30% B; 1–1.5, 100% B; 1.5–1.9, 100% B; 1.9–1.91, 1% B; and 1.91–2, 1% B. The column used was a Waters Acquity UPLC BEH C18 1.7 μm (2.1 × 50 mm) with flow rate of 0.6 mL/min and column oven temperature of 60 °C.
For plasma and feces samples, mobile phase A was 0.1% formic acid and 2 mM HCOONH4 in water, and mobile phase B was 0.1% formic acid and 2 mM HCOONH4 in acetonitrile/water (v:v, 95:5). Mobile phases were operated at the following gradient: initial, 1% B; 0–0.3 min, 1% B; 0.3–1.5, 30% B; 1.5–2.1, 95% B; 2.1–2.4, 95% B; 2.4–2.41, 1% B; and 2.41–2.5, 1% B. The column used was a Waters Acquity UPLC HSS T3 1.8 μm (2.1 × 50 mm) with a flow rate of 0.6 mL/min and a column oven temperature of 45 °C.
For in vivo studies, feces samples were homogenized at a ratio of 1 g feces to 9 mL buffer. […]

[2] = RepliGut human jejunal organoid-derived monolayer permeability assay; settings: human
[3] = system: human intestinal organoid-derived monolayer (RepliGut); assay: as above
[4] = Sprague Dawley, rat, male rats, 0.1 mg/kg PO
[5] = Sprague Dawley, rat, male rats, 1 mg/kg IV
[6] = Sprague Dawley, rat, male rats, 2 mg/kg PO
[7] = Sprague Dawley, rat, male rats, 10 mg/kg PO
[8] = Sprague Dawley, rat, male rats, 50 mg/kg PO
[9] = pH 7.4, with elacridar + Ko143 (concentrations not given)

- dose excreted ([1]; Sprague Dawley, rat, feces, male rats, 0.1 mg/kg PO, read-out: Fecal Recovery): 12%
- dose excreted ([1]; Sprague Dawley, rat, feces, male rats, 1 mg/kg IV, 24 h, read-out: Fecal Recovery): 3.2%
- dose excreted ([1]; Sprague Dawley, rat, feces, male rats, 2 mg/kg PO, read-out: Fecal Recovery): 12%
- dose excreted ([1]; Sprague Dawley, rat, feces, male rats, 10 mg/kg PO, read-out: Fecal Recovery): 10%
- dose excreted ([1]; Sprague Dawley, rat, feces, male rats, 50 mg/kg PO, read-out: Fecal Recovery): 16%
- AUC [1, 4]: 0.29 µM·h
- Cmax [1, 4]: 0.2 µM
- Tmax [1, 4]: 25.2 min
- half-life [1, 4]: 52.2 min
- Cmax [1, 5]: 4.9 µM
- Tmax [1, 5]: 1.8 min
- half-life [1, 5]: 72 min
- AUC ([1]; Sprague Dawley, rat, male rats, 1 mg/kg IV, serum, n=3): 2.34 µM·h
- AUC [1, 6]: 5.44 µM·h
- Cmax [1, 6]: 1.6 µM
- Tmax [1, 6]: 19.8 min
- half-life [1, 6]: 84 min
- AUC [1, 7]: 15.4 µM·h
- Cmax [1, 7]: 8.4 µM
- Tmax [1, 7]: 25.2 min
- half-life [1, 7]: 84 min
- AUC [1, 8]: 79.4 µM·h
- Cmax [1, 8]: 29 µM
- Tmax [1, 8]: 30 min
- half-life [1, 8]: 162 min
- dose excreted ([1]; Sprague Dawley, rat, urine, male rats, 0.1 mg/kg PO, read-out: Urinary Recovery): 47%
- dose excreted ([1]; Sprague Dawley, rat, urine, male rats, 1 mg/kg IV, 24 h, unchanged drug, read-out: Urinary Recovery): 87%
- dose excreted ([1]; Sprague Dawley, rat, urine, male rats, 2 mg/kg PO, read-out: Urinary Recovery): 45%
- dose excreted ([1]; Sprague Dawley, rat, urine, male rats, 10 mg/kg PO, read-out: Urinary Recovery): 48%
- dose excreted ([1]; Sprague Dawley, rat, urine, male rats, 50 mg/kg PO, read-out: Urinary Recovery): 43%
- BA ([1]; male rats, 0.1 mg/kg PO): 122%
- BA ([1]; male rats, 1 mg/kg IV (reference)): 100%
- BA ([1]; male rats, 2 mg/kg PO): 116%
- BA ([1]; male rats, 10 mg/kg PO): 66.0%
- BA ([1]; male rats, 50 mg/kg PO): 67.9%
- dose excreted ([1]; male, Sprague Dawley, rat, feces, rats, across oral doses, read-out: fecal recovery): ~12%
- bioavailability ([1]; male, Sprague Dawley, rat, rats, all doses): 68 to 120%
- bioavailability ([1]; male, Sprague Dawley, rat, rats, low doses): > 100%
- Tmax ([1]; male, Sprague Dawley, rat, rats, across oral doses): ~30 min
- CL renal ([1]; male, Sprague Dawley, rat, urine and plasma, iv, 1 mg/kg, read-out: CLR (renal clearance)): 24 mL/min/kg
- dose excreted ([1]; male, Sprague Dawley, rat, urine, rats, all oral doses, read-out: Urinary recovery): ~45%
- Human Equivalent Dose ([1]; rat 2 mg/kg PO): ~26 mg
- Human Equivalent Dose ([1]; rat 10 mg/kg PO): ~73 mg
- Human Equivalent Dose ([1]; rat 50 mg/kg PO): ~376 mg
- Papp A→B at 3 h ([2]; pH 7.4): 0.58 ×10⁻⁶ cm/s
- Papp B→A at 3 h ([2]; pH 7.4): 2.64 ×10⁻⁶ cm/s
- Papp at 3 h ([2]; pH 7.4): ~0.6 ×10⁻⁶ cm/s
- Papp at 3 h, 500 µM ([2]; pH 7.4): 0.58 ×10⁻⁶ cm/s
- efflux ratio at 3 h ([2]; pH 7.4, Efflux Ratio, human jejunal organoids, Papp B to A/Papp A to B): 4.6
- efflux ratio at 3 h ([2]; pH 7.4, efflux ratio, intestinal organoids, all concentrations): 3 to 4
- efflux ratio at 3 h ([2]; pH 7.4, with elacridar 5 µM + Ko143 1 µM, Efflux Ratio, human jejunal organoids + elacridar (5 μM) + Ko143 (1 μM)): ~1
- Papp A→B at 3 h [2, 9]: 0.52 ×10⁻⁶ cm/s
- Papp B→A at 3 h [2, 9]: 0.8 ×10⁻⁶ cm/s
- Efflux Substrate ([3]; Yes/No): Yes
- intracellular concentrations in intestinal organoids with and without elacridar ([3]; apical dosing): similar
- accumulation in cells, gMDCK vs organoids ([3]; basolateral dosing): greater in gMDCK cells than organoids
- intracellular accumulation in organoids, lower than gMDCK ([3]; basolateral to apical direction): approximately 10 fold
- accumulation in the cellular compartment, organoid vs gMDCK monolayers ([3]; dosed apically): no significant difference
- apical to basolateral apparent permeability in intestinal organoids compared with gMDCK monolayers ([3]; organoid vs gMDCK): significantly higher
- basolateral to apical permeability in intestinal organoids compared with gMDCK cells ([3]; organoid vs gMDCK): significantly higher
Compound: Nc1cccc2c1CN(C1CCC(=O)NC1=O)C2=O (stereo not drawn) [Lenalidomide]
